Legend:
[1] = target: Multidrug resistance-associated protein 1 (Homo sapiens, UniProt P33527); experiment: TP_TRANSPORTER: inhibition of CFDA efflux (CFDA: 1 uM, DHT: 5-50 uM) in HL60/Adr cells; type: functional, cell-based
[2] = target: Multidrug resistance-associated protein 1 (MRP1) (Homo sapiens, UniProt P33527); experiment: TP_TRANSPORTER: inhibition of CFDA efflux (CFDA: 1 uM, Genistein: 10 mM) in HL60/Adr cells; type: functional, cell-based; conditions: probe CFDA, read-out: Activity
Sequence of Multidrug resistance-associated protein 1 (MRP1) (P33527 whole entry): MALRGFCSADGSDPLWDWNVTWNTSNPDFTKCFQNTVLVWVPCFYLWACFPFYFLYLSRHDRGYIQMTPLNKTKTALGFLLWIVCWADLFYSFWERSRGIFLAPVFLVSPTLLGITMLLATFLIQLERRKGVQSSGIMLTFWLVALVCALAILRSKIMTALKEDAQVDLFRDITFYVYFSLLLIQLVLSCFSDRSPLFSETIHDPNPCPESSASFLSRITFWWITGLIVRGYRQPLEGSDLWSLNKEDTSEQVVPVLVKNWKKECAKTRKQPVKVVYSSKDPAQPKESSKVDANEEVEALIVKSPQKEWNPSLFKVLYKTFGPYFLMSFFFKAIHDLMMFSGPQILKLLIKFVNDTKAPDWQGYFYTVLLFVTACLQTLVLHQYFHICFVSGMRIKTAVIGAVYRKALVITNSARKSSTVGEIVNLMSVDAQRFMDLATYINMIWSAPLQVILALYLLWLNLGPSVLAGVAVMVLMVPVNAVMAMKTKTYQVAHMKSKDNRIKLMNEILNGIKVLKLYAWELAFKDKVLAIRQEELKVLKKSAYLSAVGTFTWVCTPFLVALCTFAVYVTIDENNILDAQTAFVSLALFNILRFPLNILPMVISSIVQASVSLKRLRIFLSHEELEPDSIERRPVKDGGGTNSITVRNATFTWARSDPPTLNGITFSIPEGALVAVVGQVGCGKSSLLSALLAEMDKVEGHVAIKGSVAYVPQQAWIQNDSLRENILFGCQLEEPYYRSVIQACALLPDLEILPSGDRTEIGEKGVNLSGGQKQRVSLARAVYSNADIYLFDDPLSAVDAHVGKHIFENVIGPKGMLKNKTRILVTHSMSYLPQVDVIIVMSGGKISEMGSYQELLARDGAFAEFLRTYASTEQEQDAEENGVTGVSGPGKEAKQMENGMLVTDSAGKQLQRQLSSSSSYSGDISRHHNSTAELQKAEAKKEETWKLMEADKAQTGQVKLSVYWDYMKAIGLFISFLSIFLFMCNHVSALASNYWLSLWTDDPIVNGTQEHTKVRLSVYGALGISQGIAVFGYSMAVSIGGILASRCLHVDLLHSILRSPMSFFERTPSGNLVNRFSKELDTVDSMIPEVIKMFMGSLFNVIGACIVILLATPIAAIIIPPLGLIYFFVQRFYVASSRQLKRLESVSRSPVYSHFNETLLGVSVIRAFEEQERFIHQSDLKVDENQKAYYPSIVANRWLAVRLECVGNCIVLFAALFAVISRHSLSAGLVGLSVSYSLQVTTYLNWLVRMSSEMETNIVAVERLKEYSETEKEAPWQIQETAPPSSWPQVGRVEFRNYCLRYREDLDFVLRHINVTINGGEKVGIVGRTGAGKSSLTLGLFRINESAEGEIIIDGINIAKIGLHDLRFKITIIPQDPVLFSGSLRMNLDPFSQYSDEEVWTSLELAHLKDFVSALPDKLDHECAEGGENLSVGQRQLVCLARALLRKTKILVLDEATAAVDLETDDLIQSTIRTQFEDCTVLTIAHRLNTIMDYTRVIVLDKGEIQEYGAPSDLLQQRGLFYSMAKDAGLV

Sequence of Multidrug resistance-associated protein 1 (P33527 whole entry): as above

inhibition at 10 mM [2] | SMILES | Activity [1]
 | C=C(CC[C@H](O)[C@@]1(C)CC[C@H](C(C)(C)O)O1)[C@H]1CC[C@H]2O[C@@H]([C@]3(C)CC[C@@H](Br)C(C)(C)O3)CC[C@]2(C)O1 [DEHYDROTHYRSIFEROL] | is not an inhibitor [-]
94.6% | O=c1c(-c2ccc(O)cc2)coc2cc(O)cc(O)c12 [GENISTEIN] | 
